Laboratory results taken from paper PMC10965373 (ChemMedChem, 2024).
Converted amounts (≈) assume the structure as drawn. “And” between values parts separate entries of the source, which are not always exact repeats. Equal values may be shown once.

Key:
[1] = tested on: Mycobacterium abscessus ATCC 19977; conditions: in vitro; cited from earlier work
[2] = tested on: Mycobacterium tuberculosis H37Rv; conditions: in vitro; cited from earlier work
[3] = cited from earlier work
[4] = cited from earlier work; remark: listed apart in the source
[5] = Single concentration cytotoxicity against HEK293; conditions: human
[6] = In vitro microsomal stability, human microsomal suspension
[7] = In vitro microsomal stability, murine microsomal suspension
[8] = after 4 h of incubation, Medicines for Malaria Venture data; cited from earlier work
[9] = male Sprague Dawley rats; cited from earlier work
[10] = tested on: human kidney epithelia cells HEK293; assay: Single concentration cytotoxicity against HEK293; conditions: HEK293, 50 μM, 24 h, relative to DMSO-treated cells
[11] = 2 μM substrate, 0.42 mg/mL microsomal proteins, 100 mM phosphate buffer pH 7.4
[12] = after 7 min, 2 μM substrate, 0.42 mg/mL microsomal proteins, pH 7.4

| SMILES | MIC90 against Mabs [1] | MIC90 against Mtb [2] [µM] | stability during incubation with human liver microsomes [3] | stability during incubation with murine liver microsomes [4] | viability at 24 h, 50 µM [5] [%] | stability in human microsomal suspension ([6]; human microsomal suspension) | stability in murine microsomal suspension ([7]; murine microsomal suspension) | remaining substance in murine plasma [8] [%] | plasma levels after oral administration [9] | relative cell viability [10] [%] | half-life in human microsomal suspension [6, 11] [min] | remaining substance in human microsomal suspension [6, 12] [%] | half-life in murine microsomal suspension [7, 11] [min] | remaining substance in murine microsomal suspension [7, 12] [%] |
| --- | --- | --- | --- | --- | --- | --- | --- | --- | --- | --- | --- | --- | --- | --- |
| O=C(N[C@H](Cc1ccccc1)C(=O)Nc1ccccc1N1CCS(=O)(=O)CC1)c1ccccc1F [compound 2, (2R)-2-[(2-fluorophenyl)formamido]-N-[2-(1,1-dioxo-1λ6-thiomorpholin-4-yl)phenyl]-3-phenylpropanamide] | 0.78 µM and < 1 µM | < 1 | highly unstable | highly unstable | 73 | comparably low stabilities | comparably low stabilities |  |  |  |  |  |  |  |
| O=C(N[C@H](Cc1ccccc1)C(=O)Nc1ccccc1N1CCOCC1)c1cccs1 [MMV] | 6.25 µM (≈ 2.72 µg/mL) |  | highly unstable | highly unstable |  |  |  | 60 | insufficient plasma levels | 67 | 1.2 | 2 | 0.9 | 0 |
